Experimental data reported in patent US20210187014A1 (The Regents of the University of Colorado, a body corporate, priority 2018, published 2021).

Columns and labels:
[1] = tested on: C. elegans; test: Siderophore toxicity test: worm growth and mitochondrial morphology (mtGFP); format: in vivo; conditions: in vivo
Source text: FIG. 8. Bacterial enterobactin promotes C. elegans development. […] (8E) The entA- and entF-mutant E. coli strains colonized the host gut as efficiently as the parental wild-type strain. (FIG. 8F) Cartoon diagram of feeding condition, microscope images and bar graph showing that neither pyoverdine nor ferrichrome caused obvious growth defects in worms fed heat-killed food plus wild-type, live E. coli. (FIG. 8G) Fluorescence microscopy of worms containing mtGFP under the same feeding condition as in (FIG. 8F). […] “n” =number of worms scored. Data are represented as mean±SEM. ***P<0.0001.

[2] = target: T1, ATP-1 (Caenorhabditis elegans, UniProt Q9XXK1); test: Biotin-Ent binding to ATP-1 (in vivo pulldown and in vitro binding assay); design: species or system C. elegans; conditions: excess non-biotin labeled Ent
T1 construct: His; made in house; host or cells: E. coli (given only for the three ATP-1 segments)
Description: First, in an in vivo assay, worms were fed bacteria +/− Biotin-Ent and total protein extracts were isolated, followed by streptavidin-bead purification and SDS-PAGE. […] Just as the iron-free Biotin-Ent, iron-bound Biotin-Ent also bound the ATP-1 protein (FIG. 10B, C).
In vivo binding assay: Worms were allowed to grow with Ent-biotin (5 ug/ml) dietary supplementation, followed by streptavidin-bead IP. Western blot was performed to detect ATP-1, using an antibody against the mammalian ATP synthase a-subunit (Thermo Fisher 43-9800).
(§1) In vitro binding assay. (a) Ent-biotin pull-down of total proteins: Ent-biotin and streptavidin beads were used to pull down interacting proteins from worm total protein extracts (same method as that in initial screen for Ent-binding proteins). Western blots were performed to detect ATP-1 (Thermo Fisher 43-9800). […] The assay was then quenched with a standard 5×SDS-PAGE_loading buffer (reducing). Proteins were separated by SDS-PAGE and transferred to_nitrocellulose membranes. The membranes were blocked for 1 h with 5% BSA in Trisbuffered saline (TBS) with 0.1% Tween 20 (TBST) at room temperature, followed by incubation for 1 h with horseradish peroxidase streptavidin (Cell Signaling_Technology,3999S) in TBST. […] After IP, the amount of 55Fe was determined by liquid scintillation.

[3] = tested on: succinate dehydrogenase; test: Succinate dehydrogenase enzymatic activity in worms +/- Ent; format: in vivo, C. elegans; conditions: worms fed Ent-deficient food
Description: Enzymatic activity. Succinate Dehydrogenase (MAK197; Sigma) and aconitase (MAK051; Sigma) enzymatic activity were measured using the kits according to the manufacturer's protocol. […] After 48 hours culturing, worms were lysed in ice-cold conditions using the lysis buffer provided in the kit, supplemented with […]. Equal amounts of protein were used for the enzymatic activity assay.

[4] = tested on: HEK293T cells; test: CAS staining of siderophore level in HEK293T cells; format: cell-based, human; conditions: Ent supplemented to the culture medium
[5] = target: T2, ATP5A1 (Homo sapiens, UniProt P25705); test: Biotin-Ent binding to ATP5A1 (pulldown from HEK293T cells and in vitro binding assay); conditions: excess, free Ent
T2 construct: His
Source text: Sequence alignment indicates 78% identity between the ATP synthase a-subunits from C. elegans (ATP-1, Wormbase; SEQ ID NO. 7) and humans (ATP5A1, NCBI; SEQ ID NO. 8) (FIG. 11D). […] To test if this Ent-ATP-1 function is conserved in mammals, the present inventors repeated the prior described biotin-Ent pulldown assay (FIG. 3A) using total protein extracts from human HEK293T cells cultured +/− Biotin-Ent.
as §1, with “TBST. After four washes with changes every 15 min in TBST, the_biotinylated proteins were visualized by enhanced chemiluminescence (GE Healthcare,_RPN2232).” for “TBST.”

[6] = tested on: HEK293T cells; test: In vivo mitochondrial iron uptake assay in HEK293T cells; format: cell-based, human
[7] = tested on: murine intestinal epithelial (MODE-K) cells; test: Cellular iron level by Calcein AM fluorescence in MODE-K cells +/- DFO; format: cell-based, mouse
Description: The present inventors then created a low-iron condition by adding an iron chelator, Deferoxamine (DFO) to the medium (FIG. 18A). […] The assay was also performed using mouse intestinal epithelial (MODE-K) cells.

[8] = tested on: liposomes; test: Iron traffic across the lipid bilayer of synthetic liposomes +/- ATPSα; format: biochemical
Description: ATPSα (ATP-1 or ATP5A1) was added to the liposome by an established method. […] The Calcein AM dye was added to liposomes +/− ATPSα and the fluorescence intensity of the liposome was measured; (B) Liposomes were incubated with radiolabel ed Fe^3+ (''FeCl3) and the radioactivity (relative CPM) of the liposome was measured. Method (A) measures iron inside the liposome, since calcein AM is only inside.

[9] = tested on: anemic mouse model (dietary anemia); test: Anemic mouse model (dietary anemia), Ent by oral gavage; format: in vivo; conditions: female mice on iron-deficient diet
Source text: The inventors fed 3-week old female mice an iron-deficient diet (IDD) (or control diet) for 6 weeks to induce anemia (confirmed by hemoglobin measurement). […] As generally shown in FIGS. 20A-B, feeding IDD caused a drastic reduction of both hemoglobin and iron levels. […] A commercial kit (BioAssay system) was used to obtain hemoglobin level. Under normal conditions, ˜70% of the iron absorbed from the intestine is used to generate hemoglobin, and only a small percent may be stored in the liver or other somatic tissues if iron is in excess. Under anemic conditions, a great percentage of iron that has entered mitochondria (then bound to heme) may be funneled to erythropoiesis. Therefore, it was not unexpected to see little impact of Ent supplementation on liver iron level (iron storage).

[10] = tested on: anemic mouse model (dietary anemia); test: Anemic mouse model (dietary anemia), Ent in drinking water; format: in vivo; conditions: male mice on iron-deficient diet, two weeks
Description: The inventors fed 3-week old male mice an iron-deficient diet (IDD) (or control diet) for 5 weeks to induce anemia. They were then fed IDD +/− Ent added to the drinking water for two more weeks. Fresh dilutions of Ent in water were provided once per week. As generally shown in FIG. 21, mice continuously fed the iron-adequate control diet (CD) were included as the control. Hemoglobin level was measured by a Hemavet Blood Analyzer. Mean value±SD is shown.

[11] = tested on: MEL cells; test: Erythroid differentiation of MEL cells (color change of cell pellets); format: cell-based, murine; conditions: equimolar supplementation
Description: FIG. 27. Ferric Enterobactin supplementation benefits differentiation of erythroid progenitor cells (MEL) to red blood cells. (FIG. 27A) MEL cells were grown with the indicated treatments. Cell pellets are shown. (FIG. 27B) Quantification of MEL color change presented as the average intensity of each cell pellet, normalized to the intensity of the control. Error bars are the standard deviation of three technical replicates.
MEL cells are murine erythroid progenitor cells that are arrested at the proerythroblast stage. In the laboratory, these cells are induced to undergo erythroid differentiation to red blood cells by addition of various chemicals (e.g. 2% DMSO) (Friend, 1971). Erythroid differentiation is an iron-dependent process that results in a color change in the differentiated cells. The present inventors tested if addition of Fe-Ent would positively impact the differentiation of wild-type MEL cells to red blood cells.

T2 sequence (P25705 44-553): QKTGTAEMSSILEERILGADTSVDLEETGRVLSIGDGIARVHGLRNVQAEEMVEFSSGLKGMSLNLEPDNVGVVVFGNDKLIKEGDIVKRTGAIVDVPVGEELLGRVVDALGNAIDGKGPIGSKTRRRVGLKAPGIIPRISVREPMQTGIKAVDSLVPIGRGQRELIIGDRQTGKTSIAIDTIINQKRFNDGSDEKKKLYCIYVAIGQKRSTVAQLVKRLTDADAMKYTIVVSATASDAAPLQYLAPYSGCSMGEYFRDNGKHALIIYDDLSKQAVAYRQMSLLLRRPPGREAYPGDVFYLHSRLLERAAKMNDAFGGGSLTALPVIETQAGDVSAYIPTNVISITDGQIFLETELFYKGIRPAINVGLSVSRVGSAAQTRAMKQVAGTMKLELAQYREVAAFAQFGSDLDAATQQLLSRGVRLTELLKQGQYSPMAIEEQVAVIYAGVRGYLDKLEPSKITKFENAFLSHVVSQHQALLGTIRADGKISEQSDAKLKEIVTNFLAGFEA
T1 sequence (Q9XXK1 whole entry): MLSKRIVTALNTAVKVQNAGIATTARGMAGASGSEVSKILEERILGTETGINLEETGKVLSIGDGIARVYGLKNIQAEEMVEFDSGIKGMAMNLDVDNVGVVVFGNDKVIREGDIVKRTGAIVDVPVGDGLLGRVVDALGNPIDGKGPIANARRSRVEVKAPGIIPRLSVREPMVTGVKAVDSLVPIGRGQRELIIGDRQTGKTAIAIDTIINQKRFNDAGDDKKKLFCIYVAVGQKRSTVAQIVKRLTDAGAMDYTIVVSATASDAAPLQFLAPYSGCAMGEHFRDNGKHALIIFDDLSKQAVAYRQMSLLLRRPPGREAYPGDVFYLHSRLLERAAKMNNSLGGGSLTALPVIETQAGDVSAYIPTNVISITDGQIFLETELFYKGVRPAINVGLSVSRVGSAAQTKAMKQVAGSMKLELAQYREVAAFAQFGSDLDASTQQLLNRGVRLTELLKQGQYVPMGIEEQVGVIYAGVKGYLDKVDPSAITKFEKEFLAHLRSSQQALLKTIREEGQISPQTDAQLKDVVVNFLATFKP

**Q.** With `O=C(N[C@H]1COC(=O)[C@@H](NC(=O)c2cccc(O)c2O)COC(=O)[C@@H](NC(=O)c2cccc(O)c2O)COC1=O)c1cccc(O)c1O` [Ent, enterobactin] as the molecule, how does the “mitochondrial morphology (mtGFP)” value [1] read?
**A.** Its value is “did not disrupt mitochondrial morphology”.

**Q.** What about the “competition of Biotin-Ent binding to ATP-1-His” value [2] of the same molecule?
**A.** Its value is “outcompeted”.

**Q.** And the “activity of succinate dehydrogenase” value [3]?
**A.** Its value is “significantly increased”.

**Q.** And the “entry into cells (CAS staining, siderophore level)” value [4]?
**A.** The value was “can enter”.

**Q.** What about the “competition of biotin-Ent binding to ATP5A1” value [5] of the same molecule?
**A.** Its value is “effectively competed away”.

**Q.** What about the “iron level in mitochondria” value [6] of the same molecule?
**A.** The value was “prominently increased”.

**Q.** What about the “effect on cellular iron level” value ([7]; iron-poor/DFO condition) of the same molecule?
**A.** Its value is “more pronounced”.

**Q.** And the cellular iron level ([7]; standard medium)?
**A.** The cellular iron level was “modestly increased the cellular iron level”.

**Q.** What about the “level of iron inside the liposome (Calcein AM)” value ([8]; FeCl3 +/- Ent 1.5 uM) of the same molecule?
**A.** Its value is “clearly boosted”.

**Q.** And the “level of iron associated with the liposome (radioactivity)” value ([8]; radiolabeled FeCl3 +/- Ent 1.5 uM)?
**A.** Its value is “clearly boosted”.

**Q.** What about the “iron level in the spleen” value ([9]; oral gavage) of the same molecule?
**A.** The value was “increased in the spleen”.

**Q.** And the hemoglobin level ([9]; oral gavage once every two days for two weeks)?
**A.** The hemoglobin level was “partially but significantly recovered”.

**Q.** And the hemoglobin level [10]?
**A.** The hemoglobin level was “significantly improved”.

**Q.** What about the “MEL differentiation to red blood cells” value [11] of the same molecule?
**A.** Its value is “decrease in differentiation”.
